Test results: patent publication US11807650B2, “NMDA receptor modulators and uses thereof” (Novartis AG, priority 2016, dated 2023)

Key:
[1] = biological target: T1, human GRIN1 (variant NR1-3) and GRIN2D expressed in HEK293 cells (Homo sapiens, UniProt O15399); test: GluN2D PAM CIQ fluorescence assay (Fluo-8 calcium, FDSS 6000); type: cell-based; conditions: relative to CIQ (100 uM) = 100%, read-out: NR2D Percent CIQ Avg Max Measured Effect
T1 construct: GenScript (GRIN2D synthesis) SC115601; host or cells: HEK293
Procedure: GluN2D PAM CIO Flourescence AssayHEK293 cells were transfected to express human GRIN1 (variant NR1-3, Origene, SKU #: SC115601, Rockville, Md.) and GRIN2D (NCBI locus NM_000836, sequence optimized and synthesized by GenScript) and grown as an adherent monolayer at 37° C., 5% CO2 in DMEM/Ham's F12+10% FBS (Hyclone SH3007.03T in the presence of 2.5 mM ARL-15896 (AdooQ Bioscience, Irvine Calif.). To prepare the cells for an experiment, they were rinsed with Dulbecco's PBS (Ca^2+ and Mg^2+ free) and detached from the flask with TrypLE™ Express (Life Technologies, Carlsbad, Calif.) using the manufacturer's recommended methods. Cells collected from the flask were washed twice in Ca^2+/Mg^2+-free Hanks Balanced Salt Solution+20 mM HEPES (HBSS), and counted and assessed for viability with trypan blue. Washed cells were then dye-loaded by resuspending in Fluo-8/AM calcium sensitive dye plus Component B (AAT Bioquest, Sunnyvale, Calif.) diluted in HBSS. To allow cells to take up fluo-8 dye, they were incubated in the dark for 15 min at 37° C., followed by 30 min at 22-25° C. After dye-loading, cells were washed and resuspended in HBSS and plated in 384-well plates (Falcon 353962; Corning, Big Flats, N.Y.) at 20,000-30,000 cells/well in a final volume of 25 μl/well. The cell plates were centrifuged at 200×g, for 2 minutes at 21° C., to create a monolayer of cells at the bottom of the wells.
To initiate an assay, 10 μl of test compound or buffer was added to each well of the cell plate and pre-incubated for 10 minutes in the dark. After 10 minutes, the cell plate was placed in a FDSS 6000 plate reader (Hamamatsu Photonics, Middlesex, N.J.); baseline fluorescence readings were collected for 20 seconds. Next, 25 μl of agonist solution (3 μM glutamate, 3 μM glycine, and 1 mM Ca^2+ in HBSS) was added and the change in fluorescence was recorded for 3 minutes.
Results were calculated by comparing the effects of test compounds to that of the literature standard GluN2C/D PAM CIQ (100 uM). The increase in fluorescence in the presence of CIQ minus the increase induced by glutamate+glycine alone was set to 100%. Responses induced by compounds that were larger than gain the presence of the standard concentration of CIQ were greater than 100% and lesser responses were less than 100%.

[2] = biological target: T2, human GRIN1 (transcript variant NR1-3) and GRIN2D expressed in Xenopus oocytes (Homo sapiens, UniProt O15399); test: NR2D oocyte potentiation assay (two-electrode voltage clamp); type: cell-based; conditions: 10 uM test compound; glutamate and glycine 10 μM each; holding potential −40 mV
T2 construct: GenScript (GRIN2D synthesis) SC115601; host or cells: Xenopus oocytes injected with cRNA (1 GluN1 : 2 GluN2)
Summary of the method: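 Xenopus oocytes were defolliculated with collagenase, then injected with 50 nL of cRNA encoding human GluN1 (NR1-3 variant) and GluN2D mixed 1:2 and kept 72 h at 16° C. Two-electrode voltage clamp at −40 mV recorded currents; after 10 μM glutamate plus 10 μM glycine reached plateau, test compound was added until a new plateau formed.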

T1 sequence (O15399 28-1336, other chains not shown): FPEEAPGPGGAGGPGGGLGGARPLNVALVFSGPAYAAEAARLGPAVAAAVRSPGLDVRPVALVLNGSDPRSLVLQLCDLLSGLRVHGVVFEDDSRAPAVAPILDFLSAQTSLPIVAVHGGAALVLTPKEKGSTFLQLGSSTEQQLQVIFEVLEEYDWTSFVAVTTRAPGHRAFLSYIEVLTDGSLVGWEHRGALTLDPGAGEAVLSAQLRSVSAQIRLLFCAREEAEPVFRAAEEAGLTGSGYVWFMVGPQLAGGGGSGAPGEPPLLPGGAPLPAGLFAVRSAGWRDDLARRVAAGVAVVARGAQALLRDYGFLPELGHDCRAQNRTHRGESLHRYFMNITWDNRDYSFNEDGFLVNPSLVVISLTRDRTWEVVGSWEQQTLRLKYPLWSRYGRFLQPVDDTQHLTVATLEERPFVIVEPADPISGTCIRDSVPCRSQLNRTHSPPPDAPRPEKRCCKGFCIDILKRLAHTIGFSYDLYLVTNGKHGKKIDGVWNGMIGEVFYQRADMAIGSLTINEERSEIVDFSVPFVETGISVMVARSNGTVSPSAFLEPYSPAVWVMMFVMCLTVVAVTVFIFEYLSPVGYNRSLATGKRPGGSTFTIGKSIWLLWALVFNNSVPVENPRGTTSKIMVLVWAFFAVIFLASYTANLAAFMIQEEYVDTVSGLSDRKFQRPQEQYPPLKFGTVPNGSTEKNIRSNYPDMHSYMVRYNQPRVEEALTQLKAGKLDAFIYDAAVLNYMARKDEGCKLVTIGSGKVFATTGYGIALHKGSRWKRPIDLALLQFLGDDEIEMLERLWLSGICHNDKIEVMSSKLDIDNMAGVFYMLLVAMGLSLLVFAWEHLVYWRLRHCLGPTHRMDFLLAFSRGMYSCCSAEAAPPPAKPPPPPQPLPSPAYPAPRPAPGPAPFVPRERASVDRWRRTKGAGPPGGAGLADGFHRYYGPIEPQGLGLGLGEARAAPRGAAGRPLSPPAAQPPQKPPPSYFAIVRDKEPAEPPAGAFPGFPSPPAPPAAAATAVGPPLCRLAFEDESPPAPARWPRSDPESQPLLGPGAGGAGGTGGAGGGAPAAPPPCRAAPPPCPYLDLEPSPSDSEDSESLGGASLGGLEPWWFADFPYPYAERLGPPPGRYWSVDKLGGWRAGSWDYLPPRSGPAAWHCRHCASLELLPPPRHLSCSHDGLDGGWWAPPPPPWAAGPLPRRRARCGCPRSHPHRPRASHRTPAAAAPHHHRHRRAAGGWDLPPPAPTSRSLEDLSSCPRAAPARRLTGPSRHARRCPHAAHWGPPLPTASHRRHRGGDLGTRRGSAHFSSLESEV
T2 sequence (O15399 28-1336, other chains not shown): as above

SMILES | Emax [1] [%] | activation at 10 µM [2] [%]
CC(C)(C)c1ncc(-c2nc3ccccn3c(=O)c2C#N)cn1 [Example 20, 2-(2-(tert-butyl)pyrimidin-5-yl)-4-oxo-4H-pyrido[1,2-a]pyrimidine-3-carbonitrile] | 100 to 200 | 100 to 500
CC(C)(C)c1ccc(-c2nc3n(c(=N)c2C#N)CCCS3)cc1 [Example 36, 8-(4-(tert-butyl)phenyl)-6-imino-3,4-dihydro-2H,6H-pyrimido[2,1-b][1,3]thiazine-7-carbonitrile] | 100 to 200 | 500 to 1000
C/N=c1/c(C#N)c(-c2ccc(C(C)(C)C)cc2)nc2n1CCCS2 [Example 37, (Z)-8-(4-(tert-butyl)phenyl)-6-(methylimino)-3,4-dihydro-2H,6H-pyrimido[2,1-b][1,3]thiazine-7-carbonitrile] | > 200 | 500 to 1000
CC(C)(C)c1ccc(-c2nc3n(c(=N)c2C#N)CCCS3)cn1 [Example 38, 8-(6-(tert-butyl)pyridin-3-yl)-6-imino-3,4-dihydro-2H,6H-pyrimido[2,1-b][1,3]thiazine-7-carbonitrile] | 100 to 200 | > 1000
CC1CSc2nc(-c3cnc(C(C)(C)C)nc3)c(C#N)c(=N)n2C1 (centres unmarked) [Example 39, 8-(2-(tert-butyl)pyrimidin-5-yl)-6-imino-3-methyl-3,4-dihydro-2H,6H-pyrimido[2,1-b][1,3]thiazine-7-carbonitrile] | > 200 | > 1000
CN(C)C(=O)/N=c1/c(C#N)c(-c2ccc(C(C)(C)C)cc2)nc2n1CCCS2 [Example 42, (Z)-3-(8-(4-(tert-butyl)phenyl)-7-cyano-3,4-dihydro-2H,6H-pyrimido[2,1-b][1,3]thiazin-6-ylidene)-1,1-dimethylurea] | 100 to 200 | 100 to 500
CSCC1COc2nc(-c3cnc(C(C)(C)C)c(F)c3)c(C#N)c(=O)n2C1 (centres unmarked) [Example 164, 8-(6-(tert-butyl)-5-fluoropyridin-3-yl)-3-((methylthio)methyl)-6-oxo-3,4-dihydro-2H,6H-pyrimido[2,1-b][1,3]oxazine-7-carbonitrile] |  | 10 to 100
COCSCC1COc2nc(-c3cnc(C(C)(C)C)c(F)c3)c(C#N)c(=O)n2C1 (centres unmarked) [Example 165, 8-(6-tert-butyl-5-fluoropyridin-3-yl)-3-{[(methoxymethyl)sulfanyl]methyl}-6-oxo-2H,3H, 4H,6H-pyrimido [2,1-b][1,3] oxazine-7-carbonitrile] |  | > 1000
COC[C@H]1CSc2nc(-c3cnc(C(C)(C)C)c(F)c3)c(C#N)c(=O)n2C1 [Example 166, (S)-8-(6-(tert-butyl)-5-fluoropyridin-3-yl)-3-(methoxymethyl)-6-oxo-3,4-dihydro-2H,6H-pyrimido[2,1-b][1,3]thiazine-7-carbonitrile] |  | > 1000
COC[C@@H]1CSc2nc(-c3cnc(C(C)(C)C)c(F)c3)c(C#N)c(=O)n2C1 [Example 167, (R)-8-(6-(tert-butyl)-5-fluoropyridin-3-yl)-3-(methoxymethyl)-6-oxo-3,4-dihydro-2H,6H-pyrimido[2,1-b][1,3]thiazine-7-carbonitrile] |  | > 1000
CC(=O)NC[C@H]1CSc2nc(-c3cnc(C(C)(C)C)c(F)c3)c(C#N)c(=O)n2C1 [Example 168, (R)-N-((8-(6-(tert-butyl)-5-fluoropyridin-3-yl)-7-cyano-6-oxo-3,4-dihydro-2H,6H-pyrimido[2,1-b][1,3]thiazin-3-yl)methyl)acetamide] |  | 500 to 1000
CC(=O)NC[C@@H]1CSc2nc(-c3cnc(C(C)(C)C)c(F)c3)c(C#N)c(=O)n2C1 [Example 169, (S)-N-((8-(6-(tert-butyl)-5-fluoropyridin-3-yl)-7-cyano-6-oxo-3,4-dihydro-2H,6H-pyrimido[2,1-b][1,3]thiazin-3-yl)methyl)acetamide] |  | > 1000
COCOCC1CSc2nc(-c3cnc(C(C)(C)C)c(F)c3)c(C#N)c(=O)n2C1 (centres unmarked) [Example 170, 8-(6-(tert-butyl)-5-fluoropyridin-3-yl)-3-((methoxymethoxy)methyl)-6-oxo-3,4-dihydro-2H,6H-pyrimido[2,1-b][1,3]thiazine-7-carbonitrile] |  | > 1000
COCOC[C@H]1CSc2nc(-c3cnc(C(C)(C)C)c(F)c3)c(C#N)c(=O)n2C1 [Example 171, (S)-8-(6-(tert-butyl)-5-fluoropyridin-3-yl)-3-((methoxymethoxy)methyl)-6-oxo-3,4-dihydro-2H,6H-pyrimido[2,1-b][1,3]thiazine-7-carbonitrile] |  | > 1000
COCOC[C@@H]1CSc2nc(-c3cnc(C(C)(C)C)c(F)c3)c(C#N)c(=O)n2C1 [Example 172, (R)-8-(6-(tert-butyl)-5-fluoropyridin-3-yl)-3-((methoxymethoxy)methyl)-6-oxo-3,4-dihydro-2H,6H-pyrimido[2,1-b][1,3]thiazine-7-carbonitrile] |  | > 1000
CC(C)(C)OCC1CSc2nc(-c3cnc(C(C)(C)C)c(F)c3)c(C#N)c(=O)n2C1 (centres unmarked) [Example 173, 3-(tert-butoxymethyl)-8-(6-(tert-butyl)-5-fluoropyridin-3-yl)-6-oxo-3,4-dihydro-2H,6H-pyrimido[2,1-b][1,3]thiazine-7-carbonitrile] |  | 10 to 100
CC(C)(C)c1ccc(-c2nc3n(c(=O)c2C#N)CCCS3)s1 [Example 177, 8-(5-tert-butylthiophen-2-yl)-6-oxo-2H,3H,4H,6H-pyrimido[2,1-b][1,3]thiazine-7-carbonitrile] | 100 to 200 | 
N#Cc1c(-c2ccnc(C3CC3)n2)nc2n(c1=O)CCCS2 [Example 180, 8-(2-cyclopropylpyrimidin-4-yl)-6-oxo-2H,3H,4H,6H-pyrimido[2,1-b][1,3]thiazine-7-carbonitrile] |  | < 10
Cc1ccc(-c2nc3n(c(=O)c2C#N)CCCS3)cc1 [Example 185, 8-(4-methylphenyl)-6-oxo-2H,3H,4H,6H-pyrimido[2,1-b][1,3]thiazine-7-carbonitrile] | 50 to 100 | 
COc1ccc(-c2nc3n(c(=O)c2C#N)CCCS3)c(OC)c1 [Example 186, 8-(2,4-dimethoxyphenyl)-6-oxo-2H,3H,4H,6H-pyrimido[2,1-b][1,3]thiazine-7-carbonitrile] | 10 to 50 | 
COc1ccccc1-c1nc2n(c(=O)c1C#N)CCCS2 [Example 188, 8-(2-methoxyphenyl)-6-oxo-2H,3H,4H,6H-pyrimido[2,1-b][1,3]thiazine-7-carbonitrile] | 10 to 50 | 
COc1cc(C(C)(C)C)ccc1-c1nc2n(c(=O)c1C#N)CCCS2 [Example 193, 8-(4-tert-butyl-2-methoxyphenyl)-6-oxo-2H,3H,4H,6H-pyrimido[2,1-b][1,3]thiazine-7-carbonitrile] |  | 100 to 500
N#Cc1c(-c2ccc(-c3ccccc3)cc2F)nc2n(c1=O)CCCS2 [Example 194, 3,4-dihydro-8-(2-fluoro-4-phenylphenyl)-6-oxo-2H,6H-pyrimido[2,1-b][1,3]thiazine-7-carbonitrile] | 10 to 50 | 
CC(C)(C)c1ccc(-c2nc3n(c(=O)c2C#N)CC2(CC2)CS3)cc1 [Example 203, 8′-(4-tert-butylphenyl)-6′-oxo-4′,6′-dihydro-2′H-spiro[cyclopropane-1,3′-pyrimido[2,1-b][1,3]thiazine]-7′-carbonitrile] | 100 to 200 | 
CSc1ccc(-c2nc3n(c(=O)c2C#N)CCS3)cc1 [Example 207, 7-[4-(methylsulfanyl)phenyl]-5-oxo-2H,3H,5H-[1,3]thiazolo[3,2-a]pyrimidine-6-carbonitrile] | 100 to 200 | 
CC(C)(C)c1ccc(-c2nc3scc(N)n3c(=O)c2C#N)cc1 [Example 210, 3-amino-7-(4-tert-butylphenyl)-5-oxo-5H-thiazolo[3,2-a]pyrimidine-6-carbonitrile] | 10 to 50 | 
